# Measured values: patent publication US11203563B2, “Preparation of zinc linolenate, and application of zinc linolenate in preparing anti-helicobacter pylori drug” (NANJING MEDICAL UNIVERSITY, priority 2018, dated 2021)
# Legend:
# Assay in all cases: MIC by broth microdilution method
# Type in all cases: cell-based
# Set-up in all cases: key: +: Bacterial growth; −: No bacterial growth
# [1] = system: Helicobacter pylori HP163; conditions: HP163 (Levofloxacin and metronidazole resistant), 72 h
# Procedure: (§1) 2.1 Detection of minimum inhibitory concentration (MIC, 100 µL system) of zinc linolenate for Helicobacter pylori by a broth microdilution method
# (§2) (1) Zinc linolenate (2 mg/mL) is prepared.
# (§3) (3) Bacterial solution preparation: the Helicobacter pylori grown in a log phase on a solid plate is taken to make a bacterial suspension with a BHI culture medium, the absorbance (OD600) is adjusted to 0.3 (1×10^8 CFU/mL), and the bacterial suspension is diluted 10 times to 1×10^7 CFU/mL for later use.
# (§4) (4) Inoculation of bacterial solution: 10 μL of bacterial solution above is taken and added to the 1-8th wells (the concentration of the bacterial solution per well is about 1.0×10^6 CFU/mL). Culture is performed for 72 h to judge the result. The drug concentrations of the 1-7th wells are 64, 32, 16, 8, 4, 2, and 1 μg/mL, respectively.
# (§5) The experiment only makes sense when the bacteria obviously grow in the 8th well, i.e. the positive control well (without antibiotics). When a single drift occurs in the microdilution method, the maximum drug concentration that inhibits bacterial growth should be recorded. If there are multiple drifts, the results should not be reported and the experiment should be repeated. The experiment is repeated 3 times for each drug.
# [2] = system: Helicobacter pylori HP159; conditions: HP159 (Levofloxacin, clarithromycin and metronidazole resistant), 72 h
# Procedure: as §1, §2, §3, §4, §5
# [3] = system: Helicobacter pylori HP160; conditions: HP160 (Metronidazole resistant), 72 h
# Procedure: as §1, §2, §3, §4, §5
# [4] = system: Helicobacter pylori HP26695; conditions: HP26695 (Sensitive), 72 h
# Procedure: as §1, §2, §3, §4, §5
# [5] = system: Helicobacter pylori HP161; conditions: HP161 (Clarithromycin resistant), 72 h
# Procedure: as §1, §2, §3, §4, §5
# [6] = system: Helicobacter pylori HP162; conditions: HP162 (Levofloxacin resistant), 72 h
# Procedure: as §1, §2, §3, §4, §5
compound,measurement,setting,value
CC/C=C\C/C=C\C/C=C\CCCCCCCC(=O)[O-].CC/C=C\C/C=C\C/C=C\CCCCCCCC(=O)[O-].[Zn+2] [zinc linolenate],Bacterial growth,[1]; zinc linolenate 1 μg/ml,+
same,Bacterial growth,[1]; zinc linolenate 2 μg/ml,+
same,Bacterial growth,[1]; zinc linolenate 4 μg/ml,+
same,Bacterial growth,[1]; zinc linolenate 8 μg/ml,−
same,Bacterial growth,[1]; zinc linolenate 16 μg/ml,−
same,Bacterial growth,[1]; zinc linolenate 32 μg/ml,−
same,Bacterial growth,[1]; zinc linolenate 64 μg/ml,−
same,Bacterial growth,[2]; zinc linolenate 1 μg/ml,+
same,Bacterial growth,[2]; zinc linolenate 2 μg/ml,+
same,Bacterial growth,[2]; zinc linolenate 4 μg/ml,+
same,Bacterial growth,[2]; zinc linolenate 8 μg/ml,−
same,Bacterial growth,[2]; zinc linolenate 16 μg/ml,−
same,Bacterial growth,[2]; zinc linolenate 32 μg/ml,−
same,Bacterial growth,[2]; zinc linolenate 64 μg/ml,−
same,Bacterial growth,[3]; zinc linolenate 1 μg/ml,+
same,Bacterial growth,[3]; zinc linolenate 2 μg/ml,+
same,Bacterial growth,[3]; zinc linolenate 4 μg/ml,−
same,Bacterial growth,[3]; zinc linolenate 8 μg/ml,−
same,Bacterial growth,[3]; zinc linolenate 16 μg/ml,−
same,Bacterial growth,[3]; zinc linolenate 32 μg/ml,−
same,Bacterial growth,[3]; zinc linolenate 64 μg/ml,−
same,Bacterial growth,[4]; zinc linolenate 1 μg/ml,+
same,Bacterial growth,[4]; zinc linolenate 2 μg/ml,+
same,Bacterial growth,[4]; zinc linolenate 4 μg/ml,+
same,Bacterial growth,[4]; zinc linolenate 8 μg/ml,−
same,Bacterial growth,[4]; zinc linolenate 16 μg/ml,−
same,Bacterial growth,[4]; zinc linolenate 32 μg/ml,−
same,Bacterial growth,[4]; zinc linolenate 64 μg/ml,−
same,Bacterial growth,[5]; zinc linolenate 1 μg/ml,+
same,Bacterial growth,[5]; zinc linolenate 2 μg/ml,+
same,Bacterial growth,[5]; zinc linolenate 4 μg/ml,+
same,Bacterial growth,[5]; zinc linolenate 8 μg/ml,−
same,Bacterial growth,[5]; zinc linolenate 16 μg/ml,−
same,Bacterial growth,[5]; zinc linolenate 32 μg/ml,−
same,Bacterial growth,[5]; zinc linolenate 64 μg/ml,−
same,Bacterial growth,[6]; zinc linolenate 1 μg/ml,+
same,Bacterial growth,[6]; zinc linolenate 2 μg/ml,−
same,Bacterial growth,[6]; zinc linolenate 4 μg/ml,−
same,Bacterial growth,[6]; zinc linolenate 8 μg/ml,−
same,Bacterial growth,[6]; zinc linolenate 16 μg/ml,−
same,Bacterial growth,[6]; zinc linolenate 32 μg/ml,−
same,Bacterial growth,[6]; zinc linolenate 64 μg/ml,−
